From PubChem BioAssay (NCI)
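Exposure lasted 48 hours, with cells grown in 96-well plates and compounds tested at five concentrations. Abbreviation: GI50, concentration required for 50% inhibition of growth. At the TGI there is no net growth.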

Experiments:
Assay in all cases: DTP human tumour cell line panel, 48 h
[1] = system: SR leukemia
[2] = system: BT-549 breast
[3] = system: KM12 colon
[4] = system: UACC-257 melanoma
[5] = system: SK-MEL-28 melanoma
[6] = system: SF-539 CNS
[7] = system: CAKI-1 renal
[8] = system: TK-10 renal
[9] = system: U251 CNS
[10] = system: OVCAR-4 ovarian
[11] = system: UO-31 renal
[12] = system: SW-620 colon
[13] = system: IGROV1 ovarian
[14] = system: HT29 colon
[15] = system: MDA-MB-231 breast
[16] = system: 786-0 renal
[17] = system: MCF7 breast
[18] = system: MALME-3M melanoma
[19] = system: HCT-116 colon
[20] = system: SK-MEL-5 melanoma
[21] = system: SF-268 CNS
[22] = system: RXF 393 renal
[23] = system: SK-OV-3 ovarian
[24] = system: MDA-MB-435
[25] = system: M14 melanoma
[26] = system: NCI-H522 lung
[27] = system: T-47D breast
[28] = system: SNB-75 CNS
[29] = system: COLO 205 colon
[30] = system: RPMI-8226 leukemia

Structure (SMILES): COc1ccc(C2=NN(C(=O)c3cc(OC)c(OC)c(OC)c3)C(c3ccc(C#N)cc3)C2)cc1OC (stereo not drawn)
- TGI [1]: > 100000 nM
- GI50 [2]: 2980 nM
- TGI [2]: > 33100 nM
- GI50 [3]: 1160 nM
- TGI [3]: > 27300 nM
- GI50 [4]: 6400 nM
- TGI [4]: > 53200 nM
- GI50 [5]: 1300 nM
- TGI [5]: > 55000 nM
- GI50 [6]: 882 nM
- GI50 [7]: 412 nM
- TGI [7]: 7150 nM
- GI50 [8]: 3650 nM
- TGI [8]: > 45000 nM
- GI50 [9]: 1180 nM
- TGI [9]: > 34600 nM
- GI50 [10]: 3410 nM
- TGI [10]: > 65100 nM
- GI50 [11]: 439 nM
- TGI [11]: 17400 nM
- GI50 [12]: 1260 nM
- TGI [12]: > 100000 nM
- GI50 [13]: 1180 nM
- TGI [13]: 18900 nM
- GI50 [14]: 2420 nM
- TGI [14]: > 32100 nM
- GI50 [15]: 2860 nM
- TGI [15]: > 45600 nM
- GI50 [16]: 2140 nM
- TGI [16]: > 48800 nM
- GI50 [17]: 512 nM
- TGI [17]: > 88900 nM
- GI50 [18]: 14600 nM
- TGI [18]: > 78900 nM
- GI50 [19]: 1630 nM
- TGI [19]: > 44200 nM
- GI50 [20]: 483 nM
- TGI [20]: 6670 nM
- GI50 [21]: 2520 nM
- TGI [21]: > 66600 nM
- GI50 [22]: 541 nM
- TGI [22]: 4690 nM
- GI50 [23]: 872 nM
- TGI [23]: 8320 nM
- GI50 [24]: 334 nM
- TGI [24]: 1240 nM
- GI50 [25]: 1800 nM
- TGI [25]: 10400 nM
- GI50 [26]: 222 nM
- TGI [26]: 1240 nM
- GI50 [27]: 3640 nM
- TGI [27]: 97600 nM
- GI50 [28]: 586 nM
- TGI [28]: 19900 nM
- GI50 [29]: 1470 nM
- TGI [29]: 4030 nM
- GI50 [30]: 3540 nM
- TGI [30]: > 100000 nM
